Experimental data taken from publication PMC2587100 (Biochemistry, 2008).

Assays:
Type in all cases: biochemical
[1] = target: T1, alkaline phosphatase (AP) (Escherichia coli, UniProt P00634, R188S); experiment: […]-based hydrolysis assay, kcat/KM
[2] = target: T2, alkaline phosphatase (AP) (Escherichia coli, UniProt P00634, R188K); experiment: […]-based hydrolysis assay, kcat/KM
[3] = target: T1, alkaline phosphatase (AP); experiment: continuous absorbance assay of hydrolysis, kcat/KM
[4] = target: T2, alkaline phosphatase (AP); experiment: continuous absorbance assay of hydrolysis, kcat/KM
[5] = target: alkaline phosphatase (AP) (Escherichia coli, UniProt P00634); experiment: steady-state hydrolysis by purified enzyme, kcat/KM
[6] = target: T2, alkaline phosphatase (AP); experiment: as above
[7] = target: T1, alkaline phosphatase (AP); experiment: as above

T1 sequence (P00634 23-471 R188S): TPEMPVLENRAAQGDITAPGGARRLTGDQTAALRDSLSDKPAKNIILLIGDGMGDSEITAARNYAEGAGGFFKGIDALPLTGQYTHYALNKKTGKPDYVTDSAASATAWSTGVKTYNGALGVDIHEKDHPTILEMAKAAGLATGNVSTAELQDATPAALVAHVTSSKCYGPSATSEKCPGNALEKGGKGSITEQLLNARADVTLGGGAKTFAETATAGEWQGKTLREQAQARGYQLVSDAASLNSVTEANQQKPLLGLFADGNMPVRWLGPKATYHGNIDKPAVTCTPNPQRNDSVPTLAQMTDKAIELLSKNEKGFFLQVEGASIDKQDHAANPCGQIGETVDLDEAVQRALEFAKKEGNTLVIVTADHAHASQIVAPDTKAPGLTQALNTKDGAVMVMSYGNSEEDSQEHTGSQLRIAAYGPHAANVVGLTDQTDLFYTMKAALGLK
T2 sequence (P00634 23-471 R188K): as the sequence (P00634 23-471 R188S) above, with S166K counted along it
Chain of alkaline phosphatase (AP) (Escherichia coli, UniProt P00634) (P00634 22-471): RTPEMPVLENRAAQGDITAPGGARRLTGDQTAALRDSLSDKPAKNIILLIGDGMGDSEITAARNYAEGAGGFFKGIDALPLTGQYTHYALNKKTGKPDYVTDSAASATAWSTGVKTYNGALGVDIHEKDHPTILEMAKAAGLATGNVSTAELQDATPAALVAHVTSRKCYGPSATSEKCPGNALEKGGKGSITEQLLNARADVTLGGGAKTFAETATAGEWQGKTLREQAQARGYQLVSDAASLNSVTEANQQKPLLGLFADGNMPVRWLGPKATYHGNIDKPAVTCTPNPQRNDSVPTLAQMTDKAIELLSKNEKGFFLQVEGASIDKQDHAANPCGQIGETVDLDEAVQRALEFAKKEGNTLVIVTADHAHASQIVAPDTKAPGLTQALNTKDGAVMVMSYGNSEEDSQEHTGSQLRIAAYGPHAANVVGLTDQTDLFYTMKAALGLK

## CCOP(=O)(O)O [EtOP, ethyl phosphate]
[1]
  EtOP / kcat/KM: 24 M⁻¹ s⁻¹
[2]
  EtOP / kcat/KM: 20 M⁻¹ s⁻¹

## O=[N+]([O-])c1ccc(OP(=O)(O)O)cc1 [pNPP, p-Nitrophenyl phosphate]
[3]
  pNPP / kcat/KM (M^-1s^-1): 1.0 × 10^5 M^−1s^−1
[4]
  pNPP / kcat/KM (M^-1s^-1): 1.9 × 10^5 M^−1s^−1

## O=[N+]([O-])c1ccc(OP(O)(O)=S)cc1 [pNPPS, p-Nitrophenyl O-phosphorothioate]
[5]
  kcat/KM (M^-1s^-1) / pNPPS: 5.5 × 10^3 M^−1s^−1
[6]
  kcat/KM (M^-1s^-1) / pNPPS: 1.6 × 10^4 M^−1s^−1
[7]
  kcat/KM (M^-1s^-1) / pNPPS: 2.6 × 10^3 M^−1s^−1
